Assay results: patent US20140187548A1, “6 SUBSTITUTED IMIDAZOPYRAZINES FOR USE AS MPS-1 AND TKK INHIBITORS IN THE TREATMENT OF HYPERPROLIFERATIVE DISORDERS” (BAYER INTELLECTUAL PROPERTY GMBH, priority 2010, published 2014)
Counter-ions that a name gives are not always drawn.

Molecular target: T1, human kinase Mps-1 (Homo sapiens, UniProt P33981)
T1 construct: N-terminally GST-tagged human full length recombinant Mps-1 kinase; GST (N); purchased Invitrogen, Karslruhe, Germany PV4071
T1 sequence (P33981 1-857): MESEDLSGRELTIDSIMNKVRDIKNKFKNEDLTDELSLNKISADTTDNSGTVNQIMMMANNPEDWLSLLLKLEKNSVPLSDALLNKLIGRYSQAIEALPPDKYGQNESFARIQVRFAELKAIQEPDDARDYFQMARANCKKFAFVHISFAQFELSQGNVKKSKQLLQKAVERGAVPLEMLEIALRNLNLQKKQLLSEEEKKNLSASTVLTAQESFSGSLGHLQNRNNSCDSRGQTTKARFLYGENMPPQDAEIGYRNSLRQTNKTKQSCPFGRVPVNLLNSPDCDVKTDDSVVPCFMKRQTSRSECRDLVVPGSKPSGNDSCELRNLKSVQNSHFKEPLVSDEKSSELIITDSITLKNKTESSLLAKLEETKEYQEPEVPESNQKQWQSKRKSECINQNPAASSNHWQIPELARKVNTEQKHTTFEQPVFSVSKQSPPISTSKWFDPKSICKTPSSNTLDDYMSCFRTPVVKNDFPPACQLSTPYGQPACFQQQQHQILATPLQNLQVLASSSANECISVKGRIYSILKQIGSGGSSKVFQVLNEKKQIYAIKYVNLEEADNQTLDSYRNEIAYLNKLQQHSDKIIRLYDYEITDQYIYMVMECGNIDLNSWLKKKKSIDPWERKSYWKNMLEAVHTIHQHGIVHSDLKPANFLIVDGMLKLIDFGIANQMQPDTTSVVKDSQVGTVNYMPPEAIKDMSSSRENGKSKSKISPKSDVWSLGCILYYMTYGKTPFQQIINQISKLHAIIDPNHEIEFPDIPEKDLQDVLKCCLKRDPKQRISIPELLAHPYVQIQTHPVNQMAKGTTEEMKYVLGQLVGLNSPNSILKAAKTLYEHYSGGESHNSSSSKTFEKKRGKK
Experiment: Mps-1 kinase assay (TR-FRET)
Assay type: biochemical
Settings: N-terminally GST-tagged human full length recombinant Mps-1; 10 μM ATP; 1 μM peptide substrate; 15 min pre-incubation; 60 min at 22° C.
Description: The human kinase Mps-1 phosphorylates a biotinylated substrate peptide. Detection of the phosphorylated product is achieved by time-resolved fluorescence resonance energy transfer (TR-FRET) from Europium-labelled anti-phospho-Serine/Threonine antibody as donor to streptavidin labelled with cross-linked allophycocyanin (SA-XLent) as acceptor. Compounds are tested for their inhibition of the kinase activity.
N-terminally GST-tagged human full length recombinant Mps-1 kinase (purchased from Invitrogen, Karslruhe, Germany, cat. no PV4071) was used. As substrate for the kinase reaction a biotinylated peptide of the amino-acid sequence […] (C-terminus in amide form, purchased from Biosynthan GmbH, Berlin) was used.
The concentration of Mps-1 in the assay was adjusted to the activity of the enzyme lot and was chosen appropriate to have the assay in the linear range, typical enzyme concentrations were in the range of about 1 nM (final conc. in the 5 μl assay volume).
The resulting mixture was incubated 1 h at 22° C. to allow the binding of the phosphorylated peptide to the anti-phospho(Ser/Thr)-Europium-antibody. Subsequently the amount of phosphorylated substrate was evaluated by measurement of the resonance energy transfer from the Europium-labelled anti-phospho(Ser/Thr) antibody to the Streptavidin-XLent. Therefore, the fluorescence emissions at 620 nm and 665 nm after excitation at 350 nm was measured in a Viewlux TR-FRET reader (PerkinElmer LAS, Rodgau-Jügesheim, Germany). The “blank-corrected normalized ratio” (a Viewlux specific readout, similar to the traditional ratio of the emissions at 665 nm and at 622 nm, in which blank and Eu-donor crosstalk are subtracted from the 665 nm signal before the ratio is calculated) was taken as the measure for the amount of phosphorylated substrate.

| SMILES | IC50 [nM] |
| --- | --- |
| NCCCNc1nc(-c2ccccc2)cn2c(-c3ccc(C(=O)NC4CC4)cc3)cnc12 [Example 8-1, 4-{8-[(3-Aminopropyl)amino]-6-phenylimidazo[1,2-a]pyrazin-3-yl}-N-cyclopropylbenzamide hydrochloride] | 21.1 |
| O=C(NC1CC1)c1ccc(-c2cnc3c(NCCc4cccnc4)nc(-c4ccccc4)cn23)cc1 [Example 2-50, N-cyclopropyl-4-(6-phenyl-8-{[2-(pyridin-3-yl)ethyl]amino}imidazo[1,2-a]pyrazin-3-yl) benzamide] | 8 |
| CCN(CC)CCNc1nc(-c2ccccc2)cn2c(-c3ccc(C(=O)NC4CC4)cc3)cnc12 [Example 2-2, N-cyclopropyl-4-(8-{[2-(diethylamino)ethyl]amino}-6-phenylimidazo[1,2-a]pyrazin-3-yl)benzamide] | 47.7 |
| CC(C)CNc1nc(-c2cccc(C(=O)N3CCCC3)c2)cn2c(-c3ccc(C(=O)NC4CC4)cc3)cnc12 [Example 1-54, N-cyclopropyl-4-{8-[(2-methylpropyl)amino]-6-[3-(pyrrolidin-1-yl-carbonyl)phenyl]imidazo [1,2-a]pyrazin-3-yl} benzamide] | 6.2 |
| CC(C)CNc1nc(-c2ccc(C(=O)NC3CC3)c(Cl)c2)cn2c(-c3ccc(C(=O)NC4CC4)cc3)cnc12 [Example 1-83, 2-chloro-N-cyclopropyl-4-{3-[4-(cyclopropyl-carbamoyl)phenyl]-8-[(2-methylpropyl)amino]imidazo[1,2-a]pyrazin-6-yl}benzamide] | 6.9 |
| NS(=O)(=O)c1ccc(CCNc2nc(-c3ccccc3)cn3c(-c4ccc(C(=O)NC5CC5)cc4)cnc23)cc1 [Example 2-21, N-cyclopropyl-4-(6-phenyl-8-{[2-(4-sulfamoylphenyl)ethyl]amino}imidazo[1,2-a]pyrazin-3-yl)benzamide] | 9.1 |
| Cc1cc(-c2cnc3c(NCCCC(C)O)nc(-c4ccc(F)cc4)cn23)ccc1C(=O)NC1CC1 (stereo not shown) [Example 10-12, N-cyclopropyl-4-{6-(4-fluorophenyl)-8-[(4-hydroxypentyl)amino]imidazo[1,2-a]pyrazin-3-yl}-2-methylbenzamide] | 7.1 |
| CN(C)c1ccc(-c2cn3c(-c4ccc(C(=O)NC5CC5)c(F)c4)cnc3c(NCC3CCCO3)n2)cc1 (stereo not shown) [Example 1-117, N-cyclopropyl-4-{6-[4-(dimethylamino)phenyl]-8-[(tetrahydrofuran-2-ylmethyl)amino]imidazo [1,2-a]pyrazin-3-yl}-2-fluorobenzamide] | 28.8 |
| Cn1nccc1CNc1nc(-c2ccc(F)cc2)cn2c(-c3ccc(C(=O)NC4CC4)c(Cl)c3)cnc12 [Example 1-107, 2-chloro-N-cyclopropyl-4-[6-(4-fluorophenyl)-8-{[(1-methyl-1H-pyrazol-5-yl)methyl]amino}imidazo[1,2-a]pyrazin-3-yl]benzamide] | 13.2 |
| CC(C)CNc1nc(-c2ccc(Cl)cc2Cl)cn2c(-c3ccc(C(=O)NC4CC4)cc3)cnc12 [Example 1-87, N-cyclopropyl-4-{6-(2,4-dichlorophenyl)-8-[(2-methylpropyl)amino]imidazo[1,2-a]pyrazin-3-yl}benzamide] | 6.7 |
| O=C(NC1CC1)c1ccc(-c2cnc3c(NCCN4CCCCC4)nc(-c4ccccc4)cn23)cc1 [Example 2-11, N-cyclopropyl-4-(6-phenyl-8-{[2-(piperidin-1-yl)ethyl]amino}imidazo[1,2-a]pyrazin-3-yl)benzamide] | 31.6 |
| Cc1cc(-c2cnc3c(NCC4CC(=O)N(C)C4)nc(-c4ccc(F)cc4)cn23)ccc1C(=O)NC1CC1 (stereo not shown) [Example 10-13, N-cyclopropyl-4-[6-(4-fluorophenyl)-8-{[(1-methyl-5-oxopyrrolidin-3-yl)methyl]amino}imidazo[1,2-a]pyrazin-3-yl]-2-methylbenzamide] | 7.2 |
| CC(C)CNc1nc(-c2ccc(SC3CC3)cc2)cn2c(-c3ccc(C(=O)NC4CC4)cc3)cnc12 [Example 1-127, N-cyclopropyl-4-{6-[4-(cyclopropylsulfanyl)phenyl]-8-[(2-methylpropyl)amino]imidazo[1,2-a]pyrazin-3-yl} benzamide] | 32.2 |
| O=C(NC1CC1)c1ccc(-c2cnc3c(NCC4CCCO4)nc(-c4ccccc4CO)cn23)cc1F (stereo not shown) [Example 1-118, N-cyclopropyl-2-fluoro-4-{6-[2-(hydroxymethyl)phenyl]-8-[(tetrahydro-furan-2-ylmethyl)amino]imidazo[1,2-a]pyrazin-3-yl}benzamide] | 20.1 |
| CC(C)CNc1nc(-c2ccccc2)c(Cl)n2c(-c3ccc(C(=O)NC4CC4)cc3)cnc12 [Example 3-1, 4-{5-chloro-8-[(2-methylpropyl)amino]-6-phenylimidazo[1,2-a]pyrazin-3-yl}-N-cyclopropylbenzamide] | 10.7 |
| O=C(NC1CC1)c1ccc(-c2cnc3c(NCC4CCC(C(F)(F)F)CC4)nc(-c4ccccc4)cn23)cc1 (mixture of isomers) [Example 2-86, N-cyclopropyl-4-[6-phenyl-8-([[4-(trifluoromethyl)cyclohexyl]methyl]amino)imidazo[1,2-a]pyrazin-3-yl]benzamide] | 12.4 |

Now those with a lower IC50, led by results:

| IC50 [nM] | SMILES |
| --- | --- |
| 5.5 | O=C(NC1CC1)c1ccc(-c2cnc3c(NCCc4ccncc4)nc(-c4ccccc4)cn23)cc1 [Example 2-41, N-cyclopropyl-4-(6-phenyl-8-{[2-(pyridin-4-yl)ethyl]amino}imidazo[1,2-a]pyrazin-3-yl) benzamide] |
| 5.4 | Cc1cc(-c2cnc3c(NCC4CCC(C)(O)CC4)nc(-c4ccc(F)cc4)cn23)ccc1C(=O)NC1CC1 (stereo not shown) [Example 10-7, N-cyclopropyl-4-[6-(4-fluorophenyl)-8-{[(4-hydroxy-4-methylcyclo-hexyl)methyl]amino}imidazo[1,2-a]pyrazin-3-yl]-2-methylbenzamide] |
| 3.3 | CC(C)CNc1nc(-c2ccc3ncccc3c2)cn2c(-c3ccc(C(=O)NC4CC4)cc3)cnc12 [Example 1-76, N-cyclopropyl-4-{8-[(2-methylpropyl)amino]-6-(quinolin-6-yl)imidazo [1,2-a]pyrazin-3-yl} benzamide] |
| 2.7 | O=C(NC1CC1)c1ccc(-c2cnc3c(NCCO)nc(-c4ccccc4)cn23)cc1 [Example 2-1, N-cyclopropyl-4-{8-[(2-hydroxyethyl)amino]-6-phenylimidazo[1,2-a]pyrazin-3-yl}benzamide] |
| 2.2 | O=C(NC1CC1)c1ccc(-c2cnc3c(NCc4cccnc4)nc(-c4ccccc4)cn23)cc1 [Example 2-28, N-cyclopropyl-4-{6-phenyl-8-[(pyridin-3-ylmethyl)amino]imidazo[1,2-a]pyrazin-3-yl} benzamide] |
| 2.1 | O=C(NC1CC1)c1ccc(-c2cnc3c(NCC4CCCO4)nc(-c4ccccc4)cn23)cc1 (stereo not shown) [Example 2-8, N-cyclopropyl-4-{6-phenyl-8-[(tetrahydrofuran-2-ylmethyl)amino]imidazo[1,2-a]pyrazin-3-yl}benzamide] |
| 1.3 | O=C(NC1CC1)c1ccc(-c2cnc3c(NCC4CCCCO4)nc(-c4ccccc4)cn23)cc1 (stereo not shown) [Example 2-65, N-cyclopropyl-4-{6-phenyl-8-[(tetrahydro-2H-pyran-2-ylmethyl)amino]imidazo[1,2-a]pyrazin-3-yl}benzamide] |
| 1.2 | O=C(NC1CC1)c1ccc(-c2cnc3c(NCC4CCCCC4)nc(-c4cccc5ncccc45)cn23)cc1 [Example 1-128, 4-{8-[(cyclohexylmethyl)amino]-6-(quinolin-5-yl)imidazo[1,2-a]pyrazin-3-yl}-N-cyclopropylbenzamide] |
| 1.1 | CC(C)CNc1nc(-c2ccc(C(N)=O)cc2)cn2c(-c3ccc(C(=O)NC4CC4)cc3)cnc12 [Example 1-24, 4-{6-(4-carbamoylphenyl)-8-[(2-methylpropyl)amino]imidazo[1,2-a]pyrazin-3-yl}-N-cyclo-propylbenzamide] |
